Paper PMC12326981, “Novel C5α-substituted carbapenems enhance Mycobacterium abscessus killing via selective target binding and reduced hydrolysis by BlaMab” (Antimicrobial Agents and Chemotherapy, 2025)
Like-named read-outs stand apart in the source and are kept apart here. Marks after values point to notes of the source that are not given here.

Legend:
Mab ATCC 19977 = assay: MIC testing against Mab ATCC 19977, single agent and combinations; assay type: cell-based, Mycobacterium abscessus
Protocol: MICs were determined in duplicate following Clinical Laboratory Standards Institute ([52]) guidelines using Middlebrook 7H9 broth supplemented with 10% (vol/vol) oleic acid-albumin-dextrose-catalase (OADC) and 0.05% (vol/vol) Tween 80, with an inoculum of 5 × 10⁵ CFU/mL. MIC testing of two C5α-substituted carbapenems was conducted both individually and in combination with cephalosporins (cefuroxime and ceftaroline), penicillins (amoxicillin), or BLIs (avibactam or durlobactam + sulbactam). Avibactam, durlobactam, cefuroxime, ceftaroline, and amoxicillin were fixed at concentrations of 4, 1, 2, 4, and 4 mg/L, respectively. […] The MIC was defined as the lowest antibiotic concentration that inhibited visible bacterial growth following 48 h of incubation at 30°C.

PBP B [1] = biological target: T1, PBP B (Mycobacteroides abscessus, UniProt B1MP31); assay: Apparent inhibition constant (nitrocefin, Dixon plot); assay type: biochemical; details: PBP B
Protocol: (§1) Steady-state kinetic studies with JDB/NA-1-157 and JDB/NA-1-208 were performed using purified LDTs and PBPs, including LDT1–5, PBP-B, PBP-lipo, and D,D-carboxypeptidase. The assays were conducted on a BioTek Synergy2 multimode reader equipped with Gen5 software. To determine the Michaelis constant (Km^NCF) for each LDT and PBP, a wide range of NCF concentrations was tested, while the enzyme concentrations were fixed. Absorbance changes at 482 nm were monitored over 10 min. Steady-state kinetic parameters (Vmax and Km) were derived by fitting the experimental data to the Henri–Michaelis–Menten equation using nonlinear least-squares regression in GraphPad Prism version 9. The reaction velocity (v) at a given substrate concentration ([S]) was calculated using equation 2: […]
(§2) The apparent inhibition constants (Ki,app) for JDB/NA-1-157 and JDB/NA-1-208 were determined under the following conditions: an NCF concentration of 5 × Km, fixed concentrations of LDT or PBP enzymes, and varying concentrations of JDB/NA-1-157 and JDB/NA-1-208. Absorbance changes at 482 nm were monitored over a 30 min period for each inhibitor concentration. The data were linearized using a Dixon plot, which involves plotting the reciprocal of the absorbance change (1/ΔA) against the concentrations of JDB/NA-1-157 or JDB/NA-1-208. Apparent Ki,app values were derived from the intersection points on the Dixon plot and were subsequently corrected for substrate concentration and enzyme affinity using equation 3:
(§3) (3) Ki,app=observed Ki,app/1+[NCF]/Km NCF.

PBP-lipo [2] = biological target: T2, PBP-lipo (Mycobacteroides abscessus, UniProt B1MDC3); assay: as above; assay type: biochemical; details: Ki,app
T2 construct: made in house; host or cells: Escherichia coli BL21 (DE3)
Protocol: as §1, §2, §3

PBP-lipo [3] = biological target: T2, PBP-lipo; assay: Bocillin-FL competitive binding assay; details: Bocillin-FL competition, 1:10 molar ratio
Protocol: The binding of JDB/NA-1-157 and JDB/NA-1-208 to PBP-lipo was assessed using a Bocillin-FL competitive assay as previously described ([25]). Briefly, purified PBP-lipo and the compounds (at a 1:10 molar ratio) were incubated in a buffer containing 10 mM sodium phosphate (pH 7.4) and 150 mM NaCl for 2 h at room temperature, followed by additional incubation with 1 µM Bocillin FL for 4 h at 37°C. Samples were boiled and analyzed by SDS-PAGE. The PBP-lipo:Bocilli complexes were detected via fluorescence at 488 nm using an Azure 300 gel imaging system. Band intensity was quantified using GelAnalyzer software.

BlaMab = BlaMab (Mycobacteroides abscessus, UniProt B1MCI3); assay: Mass spectrometric analysis of acyl-enzyme adducts; assay type: binding; design: key to Mass of protein after incubation (mass shift): (.) indicates no detectable binding; details: for adduct formation with BlaMab: mass spectrometry
Protocol: (§4) Truncated sequences of BlaMab (Δ1–30 blaMab), LDT1–5, DDC, PBP B, PonA2, and PBP-lipo (Δ1–41) were synthesized by Celtek Biosciences (Franklin, TN) and cloned into the pET28(a)+ vector. Purification of LDTs and PBPs was carried out as previously described ([15], [16], [20]). Briefly, clones were transformed into Escherichia coli BL21 (DE3), and protein expression was induced with 0.25 mM isopropyl β-d-1-thiogalactopyranoside. Cell pellets were resuspended in buffer containing 50 mM Tris (pH 8.0), 400 mM sodium chloride, and 1 mM Tris(2-carboxyethyl)phosphine hydrochloride and lysed by sonication. After centrifugation, the supernatant was purified using a His Prep FF column and eluted with 500 mM imidazole.
(§5) The purified proteins were incubated at room temperature with JDB/NA-1-157 and JDB/NA-1-208 at a molar ratio of 1:10 for 2 h. A quadrupole time-of-flight mass spectrometer (Waters Synapt-G2-Si) with electrospray ionization and a Waters Acquity H-Class UPLC system were used to analyze the samples. The liquid chromatography conditions were as follows: a BEH C18 column (1.7 µm, 2.1 × 50 mm) and a mobile phase consisting of 0.1% formic acid in water and 0.1% formic acid in acetonitrile, with a gradient elution from 10% to 90% acetonitrile over 11 min at a flow rate of 0.5 mL/min. The MS settings were optimized with a capillary voltage of 3 kV, a sampling cone voltage of 35 V, and source and desolvation temperatures of 100°C and 500°C, respectively. Gas flow rates were 100 L/h for the cone and 800 L/h for desolvation. The mass accuracy was maintained at ±5 Da.

LDT2 = LDT2 (Mycobacteroides abscessus, UniProt B1MMQ4); assay: Apparent inhibition constant (nitrocefin, Dixon plot); assay type: biochemical, Mycobacterium abscessus; details: Ki,app
Protocol: as §1, §2, §3

PonA2 = PonA2 (Mycobacteroides abscessus, UniProt B1MFV7); assay: as above; assay type: biochemical, Mycobacterium abscessus; details: Ki,app
Protocol: as §1, §2, §3

LDT1 = LDT1 (Mycobacteroides abscessus, UniProt B1MDC1); assay: as above; assay type: biochemical, Mycobacterium abscessus; details: Ki,app
Protocol: as §1, §2, §3

PBP B [4] = biological target: T1, PBP B; assay: Mass spectrometric analysis of acyl-enzyme adducts; assay type: binding; details: PBP B (65,863); 1:10 molar ratio, 2 h; accuracy ±5 Da
Protocol: as §4
as §5, with “The MS settings were optimized with a capillary voltage of 3 kV, a sampling cone voltage of 35 V, and source and desolvation temperatures of 100°C and 500°C, respectively. Gas flow rates were 100 L/h for the cone and 800 L/h for desolvation. The mass accuracy was maintained at ±5 Da.” left out

[5] = Mycobacteroides abscessus, ATCC19977, 48 h, alone (single agent), read-out: MIC

T1 sequence (B1MP31 entry or part of it): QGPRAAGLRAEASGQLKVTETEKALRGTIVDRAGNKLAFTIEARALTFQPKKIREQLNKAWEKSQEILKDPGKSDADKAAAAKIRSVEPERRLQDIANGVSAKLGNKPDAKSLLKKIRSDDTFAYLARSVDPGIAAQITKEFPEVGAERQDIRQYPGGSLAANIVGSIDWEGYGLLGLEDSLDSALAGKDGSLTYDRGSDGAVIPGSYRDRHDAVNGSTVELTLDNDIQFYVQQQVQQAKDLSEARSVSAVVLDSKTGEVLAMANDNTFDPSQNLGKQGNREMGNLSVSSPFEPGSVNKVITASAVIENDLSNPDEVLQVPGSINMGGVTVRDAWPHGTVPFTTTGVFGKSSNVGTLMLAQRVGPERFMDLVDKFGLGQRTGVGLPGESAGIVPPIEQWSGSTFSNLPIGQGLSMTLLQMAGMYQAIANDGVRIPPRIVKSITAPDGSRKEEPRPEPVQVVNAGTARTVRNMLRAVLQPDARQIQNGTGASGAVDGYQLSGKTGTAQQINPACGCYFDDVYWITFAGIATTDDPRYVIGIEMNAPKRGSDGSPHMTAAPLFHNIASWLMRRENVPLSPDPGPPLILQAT
Chain of BlaMab (B1MCI3 entry or part of it): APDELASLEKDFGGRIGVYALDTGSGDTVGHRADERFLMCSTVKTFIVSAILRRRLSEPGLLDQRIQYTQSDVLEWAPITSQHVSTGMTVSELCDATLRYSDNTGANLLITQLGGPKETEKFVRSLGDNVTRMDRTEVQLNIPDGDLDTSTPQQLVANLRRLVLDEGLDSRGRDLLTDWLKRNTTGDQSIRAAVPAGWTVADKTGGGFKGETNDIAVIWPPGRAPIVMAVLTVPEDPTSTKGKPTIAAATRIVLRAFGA
T2 sequence (B1MDC3 entry or part of it): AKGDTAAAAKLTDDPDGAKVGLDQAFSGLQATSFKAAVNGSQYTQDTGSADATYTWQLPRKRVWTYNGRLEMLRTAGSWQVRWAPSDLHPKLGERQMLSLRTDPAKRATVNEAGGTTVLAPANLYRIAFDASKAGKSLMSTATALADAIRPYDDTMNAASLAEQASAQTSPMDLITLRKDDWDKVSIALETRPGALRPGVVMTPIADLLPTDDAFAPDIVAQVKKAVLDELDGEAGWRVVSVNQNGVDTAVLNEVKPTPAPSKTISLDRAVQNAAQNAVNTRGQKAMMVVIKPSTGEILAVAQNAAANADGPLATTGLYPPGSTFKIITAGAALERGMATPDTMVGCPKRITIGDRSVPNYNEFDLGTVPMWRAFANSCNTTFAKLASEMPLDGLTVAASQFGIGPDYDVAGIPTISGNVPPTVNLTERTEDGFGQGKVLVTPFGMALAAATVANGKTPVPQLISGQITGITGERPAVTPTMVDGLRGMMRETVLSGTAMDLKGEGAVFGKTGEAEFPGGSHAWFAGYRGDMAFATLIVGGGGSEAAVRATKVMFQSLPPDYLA
Chain of PonA2 (B1MFV7 entry or part of it): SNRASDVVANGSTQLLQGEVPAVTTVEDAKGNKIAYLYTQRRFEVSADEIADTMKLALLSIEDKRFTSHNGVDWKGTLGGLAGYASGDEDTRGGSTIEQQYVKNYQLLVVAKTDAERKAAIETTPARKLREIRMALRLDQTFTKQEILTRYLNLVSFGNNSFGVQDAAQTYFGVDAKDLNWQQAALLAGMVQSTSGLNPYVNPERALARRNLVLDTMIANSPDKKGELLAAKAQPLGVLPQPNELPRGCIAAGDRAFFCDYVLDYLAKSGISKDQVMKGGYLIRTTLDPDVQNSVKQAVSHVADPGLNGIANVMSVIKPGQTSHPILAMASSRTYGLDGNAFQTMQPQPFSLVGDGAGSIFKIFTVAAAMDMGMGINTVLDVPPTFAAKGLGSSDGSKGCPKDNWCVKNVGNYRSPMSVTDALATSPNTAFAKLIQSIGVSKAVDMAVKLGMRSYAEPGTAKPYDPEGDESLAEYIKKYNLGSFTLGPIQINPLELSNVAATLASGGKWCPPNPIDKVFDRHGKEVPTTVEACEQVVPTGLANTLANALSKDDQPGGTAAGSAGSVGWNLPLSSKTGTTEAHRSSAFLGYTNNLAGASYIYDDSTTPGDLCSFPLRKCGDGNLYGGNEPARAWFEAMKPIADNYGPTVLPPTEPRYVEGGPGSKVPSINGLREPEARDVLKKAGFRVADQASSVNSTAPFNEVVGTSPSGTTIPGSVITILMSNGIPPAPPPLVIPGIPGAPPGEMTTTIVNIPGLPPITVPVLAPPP
Chain of LDT2 (B1MMQ4 entry or part of it): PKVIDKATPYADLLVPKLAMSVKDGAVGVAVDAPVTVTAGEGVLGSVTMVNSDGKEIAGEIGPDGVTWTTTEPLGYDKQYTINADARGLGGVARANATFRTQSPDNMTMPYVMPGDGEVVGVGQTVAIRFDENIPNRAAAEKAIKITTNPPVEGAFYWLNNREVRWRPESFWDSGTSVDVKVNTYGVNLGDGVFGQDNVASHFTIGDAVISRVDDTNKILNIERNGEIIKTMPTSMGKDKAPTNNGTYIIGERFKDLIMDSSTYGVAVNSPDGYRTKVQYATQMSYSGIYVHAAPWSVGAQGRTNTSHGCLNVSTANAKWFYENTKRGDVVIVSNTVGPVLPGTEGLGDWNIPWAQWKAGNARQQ
Chain of LDT1 (B1MDC1 entry or part of it): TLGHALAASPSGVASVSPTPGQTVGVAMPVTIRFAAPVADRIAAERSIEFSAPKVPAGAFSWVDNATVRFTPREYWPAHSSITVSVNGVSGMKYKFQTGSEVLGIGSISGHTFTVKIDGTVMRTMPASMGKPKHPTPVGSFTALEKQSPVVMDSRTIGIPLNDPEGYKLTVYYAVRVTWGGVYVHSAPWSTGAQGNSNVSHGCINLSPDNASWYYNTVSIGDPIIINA

Compound	MIC (Mab ATCC 19977; +AMX (4 mg/L) + AVI (4 mg/L)) [µg/mL]	MIC (Mab ATCC 19977; +AVI (4 mg/L)) [µg/mL]	MIC (Mab ATCC 19977; +CFT (4 mg/L)) [µg/mL]	MIC (Mab ATCC 19977; +CXM (2 mg/L)) [µg/mL]	MIC (Mab ATCC 19977; +DUR (1 mg/L)) [µg/mL]	MIC (Mab ATCC 19977; [5]) [µg/mL]	fold reduction in MIC on combination (Mab ATCC 19977; combined with cefuroxime, ceftaroline, or amoxicillin (with avibactam), Table 1, Fig. 3) [fold]	Ki (PBP B [1]; Ki,app) [nM]	Ki (PBP-lipo [2]) [nM]	binding to PBP-lipo (PBP-lipo [3])	adduct formation with BlaMab (BlaMab)	Ki (LDT2) [nM]	Ki (PonA2) [nM]	Ki (LDT1) [nM]	Ki (PBP B [1]; read-out: Ki,app (converted)) [nM]	Mass of protein after incubation (mass shift) (BlaMab; BlaMab (28,433), 1:10 molar ratio, 2 h, room temperature, accuracy ±5 Da)	Mass of protein after incubation (mass shift) (PBP B [4])
C[C@@H](O)[C@H]1C(=O)N2C(C(=O)O)=C(S[C@@H]3CN[C@H](C(=O)N(C)C)C3)C[C@]12C [JDB/NA-1-157]	0.125	0.5	0.125	0.125	0.25	0.5	≤ 4	4900	258	form acyl-enzyme complexes	formed a complex	130	7.82	7980	–	–	–
CC[C@]12CC(S[C@@H]3CN[C@H](C(=O)N(C)C)C3)=C(C(=O)O)N1C(=O)[C@@H]2[C@@H](C)O [JDB/NA-1-208]	≤0.0313	32	4	8	32	32	–	–	–	lacks binding	did not form an adduct	166	352	1110	80.5	28,434 (.)^b	66,262 (+397) Da
